In US20210132079A1, “ANTIBODY” (UCB Biopharma SRL, priority 2015, published 2021):
Entries after “also recorded” stand apart in the source; their conditions may differ.

Experiments:
soluble form of CD40L = target: T1, soluble form of CD40L (Homo sapiens, UniProt P29965); assay: SPR on Biacore 4000 against immobilised CD40L; conditions: read-out: geomean IC50 for binding against CD40L
T1 sequence (P29965 113-261 limits assumed): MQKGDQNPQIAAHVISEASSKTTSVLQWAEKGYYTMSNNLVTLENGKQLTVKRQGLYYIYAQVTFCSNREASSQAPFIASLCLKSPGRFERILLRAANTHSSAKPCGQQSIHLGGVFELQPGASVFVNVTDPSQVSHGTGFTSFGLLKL
Method: (§1) In another experiment, BIO8898 was tested against the immobilised soluble form of CD40L and the soluble form of TNFα by SPR on a Biacore 4000 machine.

soluble form of TNFα = target: T2, soluble form of TNFα (Homo sapiens, UniProt P01375); assay: SPR on Biacore 4000 against immobilised TNFα; assay type: binding; conditions: concentration of up to 100 μM
T2 construct: immobilised soluble form of CD40L and the soluble form of TNFα by SPR
Method: as §1

T2 sequence (P01375 77-233 limits assumed): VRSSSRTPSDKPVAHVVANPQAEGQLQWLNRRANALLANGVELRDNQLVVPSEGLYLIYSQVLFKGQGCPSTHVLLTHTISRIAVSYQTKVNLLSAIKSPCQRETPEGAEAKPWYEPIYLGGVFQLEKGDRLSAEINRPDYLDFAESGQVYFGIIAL

- IC50 (soluble form of CD40L): 17 µM
SMILES: O=C(NCc1cccc(-c2ccccc2)c1)c1cc(-c2cc(C(=O)NC(C(=O)O)C3CCCCC3)nc(C(=O)N3CCCC3CN3CCCC3)c2)cc(C(=O)N2CCCC2CN2CCCC2)n1 (centres unmarked) [BIO8898]
- binding to TNFα (soluble form of TNFα): found not to bind; also recorded: no binding was detected
